{"source": "patent US8298522B1", "about": "“Methods of modulating MUC1 expression to inhibit inflammation” (priority 2005, dated 2012)", "molecules": {"B1": {"name": "PAK flagellin: P. aeruginosa strain K flagellin purified by differential centrifugation, single 50 kDa protein band (protein)", "chain": "ALTVNTNIASLNTQRNLNNSSASLNTSLQRLSTGSRINSAKDDAAGLQIANRLTSQVNGLNVATKNANDGISLAQTAEGALQQSTNILQRMRDLSLQSANGSNSDSERTALNGEVKQLQKELDRISNTTTFGGRKLLDGSFGVASFQVGSAANEIISVGIDEMSAESLNGTYFKADGGGAVTAATASGTVDIAIGITGGSAVNVKVDMKGNETAEQAAAKIAAAVNDANVGIGAFSDGDTISYVSKAGKDGSGAITSAVSGVVIADTGSTGVGTAAGVTPSATAFAKTNDTVAKIDISTAKGAQSAVLVIDEAIKQIDAQRADLGAVQNRFDNTINNLKNIGENVSAARGRIEDTDFAAETANLTKNQVLQQAGTAILAQANQLPQSVLSLLR"}}, "key": {"[1]": {"tested_on": "MUC1 protein in A549 cells", "conditions": "A549 cells, 5.0 μg/ml AcD or 10 μg/ml Chx, no NE", "procedure": "Confluent A549 cells were incubated in the presence or absence of 5.0 μg/ml of actinomycin (AcD) or 10 μg/ml of cycloheximide (Chx) for 1 hr and either non-treated or treated for 24 hr with 100 nM of NE. MUC1 protein levels in cell lysates (A) and spent media (B) were measured by ELISA. Each bar represents the mean±SEM (n=3). […] (C) Aliquots of spent media obtained from confluent A549 cells were non-treated (0 hr) or treated for 24 hr with 100 nM NE or vehicle control and MUC1 levels in the spent media determined by ELISA. Each bar represents the mean±SEM (n=3).\nA549 cells were seeded at 5.0×10^4 cells/well in 24-well plates in Dulbecco's Modified Eagle Medium (DMEM) containing 10% fetal bovine serum (FBS), 100 U/ml penicillin, and 100 μg/ml streptomycin (all from Invitrogen, Carlsbad, Calif.) and incubated at 37° C. in a humidified CO2 incubator. Confluent monolayers were washed with serum-free DMEM and treated with 100 nM (2.6 U/ml) NE or vehicle control (PBS) for 24 hr. In some experiments, the cells were pretreated for 1 hr with 5.0 μg/ml of actinomycin D or 10 μg/ml of cycloheximide prior to NE treatment. Following treatment, cell-conditioned media were collected, and the cells were washed with PBS and lysed with 500 μl/well of PBS containing 1.0% Triton X-100, 1.0% sodium deoxycholate, 1.0% protease inhibitor cocktail, and 2.0 mM phenylmethylsulfonyl fluoride (PMSF). Lysates and conditioned media were incubated for 20 min at 80° C. to inactivate residual NE, insoluble material removed by centrifugation at 14,000×g for 10 min at 4° C., and protein concentrations measured by the procedure of Bradford using bovine serum albumin as standard.\nELISA. A549 cell lysates or cell-conditioned culture media were centrifuged at 10,000×g for 10 min at 4° C., added in triplicate to 96-well ELISA plates (MaxiSorb™, Nalge Nunc, Rochester, N.Y.), and incubated overnight at 4° C. Wells were blocked for 1 hr at room temperature (about 22° C.) with PBS, pH 7.0, containing 10 mg/ml BSA and 50 mg/ml sucrose and washed with PBS containing 0.05% Tween 20 (PBS-T). The samples were reacted for 2 hr at room temperature with 200 μg/ml of primary MUC1 antibody (GP1.4), washed with PBS-T, reacted for 2 hr at room temperature with 200 μg/ml of secondary antibody (peroxidase-conjugated goat antimouse IgG) (KPL, Gaithersburg, Md.), and washed with PBS-T. Bound antibodies were detected with tetramethylbenzidine substrate (SureBlue™, KPL), the substrate reaction stopped with 1 N HCl, and absorbencies at 450 nm measured using a microplate spectrophotometer (Dexall, Gaithersburg, Md.)."}, "[2]": {"tested_on": "MUC1 transcription (MEK/ERK signaling pathway)", "assay": "TNF-α induced MUC1 expression in A549 lung epithelial cells", "format": "cell-based, human", "description": "TNF-α induces MUC1 expression through a MAP kinase pathway in human lung epithelial cells. TNF-α stimulates MUC1 transcription and protein expression in lung epithelial cells. Activation of MAP kinases and NF-κB was verified using Western blot analysis. […] TNF-α activate all three MAP kinases (ERK, p38, and JNK) as well as NF-κB. […] TNF-α stimulates MUC1 production in A549 cells through transcriptional activation via the MEK/ERK signaling pathway."}, "[3]": {"tested_on": "ELAM-1 promoter activity in A549 lung carcinoma cells", "assay": "ELAM-1 promoter-luciferase assay in A549 cells after MUC1 siRNA transfection", "format": "cell-based, human", "conditions": "8.0 nM siRNA 24 h, 10 ng/ml flagellin 6 h", "protocol": "To assess the effects of endogenous MUC1 expression on NF-κB activation, ELAM-1 promoter activity in A549 lung carcinoma cells following transfection with MUC1 with small interfering RNA (siRNA) duplexes was measured. Inhibition of MUC1 expression was confirmed by FACS analysis following treatment with the MUC1 siRNA but not a control RNA (data not shown).\nReferring now to FIG. 3, twenty four hours after transfection with the control RNA or MUC1 siRNA, A549 cells were treated with 10 ng/ml of flagellin or an equivalent amount of the fliC control for 6 hours. Cell lysates were prepared and luciferase activity measured as indicated in the examples section. […]\nHEK293T and A549 cells were seeded in 24-well plates at 2×10^5 and 5×10^4 cells/well respectively, incubated overnight, and transfected with the 0.4 μg/well of the NF-κB responsive pELAM-1 promoter-luciferase plasmid and 10 ng/well of the phRL-TK plasmid (Promega) as an internal control using 2 μl/well of Lipofectamine™2000 (Invitrogen) according to the manufacturer's instructions. The cells were incubated for 24 h at 37° C. in 5% CO2, treated with 10 ng/ml PAK flagellin or an equivalent volume of the fliC negative control for 6 h, and relative luciferase activity determined. […] Data are expressed as mean relative luciferase activity±SEM of triplicate or quadruplicate determinations."}, "MUC1": {"tested_on": "MUC1", "assay": "MUC1 siRNA knockdown of MUC1 expression in primary NHBE cells (immunoblot, FACS)", "format": "cell-based, human", "conditions": "1.5 μg siRNA, vs control RNA", "protocol": "(§1) Primary NHBE cells were nucleofected with 1.5 μg of a MUC1 siRNA or a non-targeting control RNA. At 48 h post-nucleofection, total MUC1 protein was determined by immunoblotting as described (20) (A) and cell surface MUC1 was determined by FACS analysis using anti-MUC1 (GP1.4, mouse IgG1, κ, Biomeda) as primary antibody and R-Phycoerythrin-conjugated goat anti-mouse IgG (Santa Cruz) as secondary antibody. Mouse IgG1 (κ isotype, eBioscience) was used as primary antibody to determine threshold fluorescence signal. (B). (C) Cells were stimulated with 10 ng/ml of flagellin for 6 h and IL-8 levels in basolateral medium were measured.\nMacrophages were harvested from BALF or the peritoneal space, and erythrocytes lysed with 10 mM Tris-HCl, pH 7.2 containing 150 mM NH4Cl. Peritoneal macrophages (PM) were harvested after treating mice i.p. with 3% thioglycollate for 3 days. The recovered cells consisted of >95% macrophages as determined by immunofluorescence using the F4/80 macrophage marker (eBioscience). Cells were seeded in 24-well tissue culture plates at 1.0×10^5 cells/well in DMEM containing 10% FBS, […], and allowed to adhere for 24 h before flagellin or LPS (PA10, Sigma) treatment. […]"}, "[4]": {"tested_on": "IL-8 levels in primary NHBE cells", "assay": "Flagellin-induced IL-8 levels in MUC1 siRNA-treated primary NHBE cells", "format": "cell-based, human", "conditions": "10 ng/ml flagellin 6 h, basolateral medium", "protocol": "as §1\nMacrophages were harvested from BALF or the peritoneal space, and erythrocytes lysed with 10 mM Tris-HCl, pH 7.2 containing 150 mM NH4Cl. Peritoneal macrophages (PM) were harvested after treating mice i.p. with 3% thioglycollate for 3 days. The recovered cells consisted of >95% macrophages as determined by immunofluorescence using the F4/80 macrophage marker (eBioscience). […]\n(§2) Mouse KC and TNF-α and human IL-8 were quantified by ELISA using commercially available antibodies (eBioscience; R&D Systems). All samples were analyzed in triplicate and standard curves were performed on each plate."}, "TLR5 [5]": {"molecular_target": "T1, TLR5 (Homo sapiens, UniProt O60602)", "T1 sequence (O60602 21-858)": "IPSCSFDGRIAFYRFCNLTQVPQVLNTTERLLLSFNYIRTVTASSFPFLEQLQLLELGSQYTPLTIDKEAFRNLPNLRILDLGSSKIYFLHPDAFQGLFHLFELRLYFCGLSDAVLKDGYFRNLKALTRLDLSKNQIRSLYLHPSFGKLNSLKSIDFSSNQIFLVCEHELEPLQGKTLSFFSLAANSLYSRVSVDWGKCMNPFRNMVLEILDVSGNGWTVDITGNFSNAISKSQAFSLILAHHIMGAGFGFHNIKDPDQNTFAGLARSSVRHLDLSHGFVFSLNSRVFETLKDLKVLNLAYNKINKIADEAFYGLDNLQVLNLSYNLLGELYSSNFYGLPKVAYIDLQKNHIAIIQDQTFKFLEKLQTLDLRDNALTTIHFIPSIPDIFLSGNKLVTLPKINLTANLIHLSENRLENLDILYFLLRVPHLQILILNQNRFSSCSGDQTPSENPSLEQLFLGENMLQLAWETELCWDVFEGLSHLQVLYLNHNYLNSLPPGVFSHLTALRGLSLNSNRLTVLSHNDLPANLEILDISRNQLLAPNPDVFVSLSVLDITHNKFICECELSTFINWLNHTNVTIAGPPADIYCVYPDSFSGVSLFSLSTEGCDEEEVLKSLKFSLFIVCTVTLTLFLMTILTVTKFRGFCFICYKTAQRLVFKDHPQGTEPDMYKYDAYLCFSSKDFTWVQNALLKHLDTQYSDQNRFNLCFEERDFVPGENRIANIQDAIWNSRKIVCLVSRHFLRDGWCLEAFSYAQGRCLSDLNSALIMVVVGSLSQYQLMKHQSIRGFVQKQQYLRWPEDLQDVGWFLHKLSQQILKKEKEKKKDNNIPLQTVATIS", "assay": "cell-based or functional assay"}, "TLR5 [6]": {"molecular_target": "T1, TLR5", "assay": "Flagellin-driven IL-8 release in HEK293T cells with or without transfected TLR5", "format": "cell-based", "design": "V5-His (vector pEF6/V5-His); expressed in transfected cells; host or cells: HEK293T", "protocol": "TLR5 mediates flagellin-stimulated innate immune responses. Because TLR5 and MUC1/Muc1 are flagellin receptors and both are expressed by airway macrophages and epithelial cells the relationship between MUC1 and TLR5 in response to flagellin in HEK293T cells stably transfected with a MUC1 expressing plasmid and flagellin-driven IL-8 release was determined following transient transfection with a TLR5 expressing plasmid. HEK293T cells express TLR5 but not MUC1. […] Flagellin-induced increase in IL-8 release was completely abolished in cells co-transfected with MUC1 and TLR5. […] HEK293T cells stably transfected with the pcDNA3.1 empty vector (A) or plasmids encoding the full-length MUC1 or MUC1-ACT (B) were transiently transfected with a TLR5 expression plasmid or empty vector. At 24 h post-transfection, the cells were treated for 6 h with 10 ng/ml of flagellin or PBS, and IL-8 levels in medium were measured. […]\nas §2"}, "[7]": {"tested_on": "ELAM-1 promoter (NF-κB activation, TLR5 signaling) in HEK293T cells", "assay": "ELAM-1 promoter-luciferase reporter assay in HEK293T cells", "format": "cell-based, human", "conditions": "10 ng/ml PAK flagellin, 6 h", "description": "The relationship between TLR5 and MUC1 signaling in response to flagellin was investigated utilizing TLR5-expressing cells in the absence or presence of MUC1 expression. Initially, we screened a number of different airway and non-airway cell lines by Western blotting and/or real-time PCR with the goal of identifying a TLR5+/MUC1− host cells for transfection of the pMUC1 expression plasmid. Referring now to FIG. 1A, (A) HEK293T cells were transfected with pcDNA3.1 empty vector or the pMUC1 expression plasmid. After trypsinization, cells were reacted with normal mouse IgG or mouse anti-MUC1 antibody followed by PE-conjugated goat anti-mouse IgG antibody and examined by FACS analysis. […] Cell lysates were prepared and relative luciferase activity measured as indicated in Materials and Methods. […]\nHEK293T and A549 cells were seeded in 24-well plates at 2×10^5 and 5×10^4 cells/well respectively, incubated overnight, and transfected with the 0.4 μg/well of the NF-κB responsive pELAM-1 promoter-luciferase plasmid and 10 ng/well of the phRL-TK plasmid (Promega) as an internal control using 2 μl/well of Lipofectamine™2000 (Invitrogen) according to the manufacturer's instructions. The cells were incubated for 24 h at 37° C. in 5% CO2, treated with 10 ng/ml PAK flagellin or an equivalent volume of the fliC negative control for 6 h, and relative luciferase activity determined. […]"}}, "note": "*1 amine or outer side, *2 acyl side, *3 side chain or, on linkers, in order; H or OH if unused. Where a SMILES comes first, the peptide text is derived from it. Bridges are numbered along the chain shown (N, C = ends). Roman numbers before positions name the chains, in order. [ ]: non-standard residue; d: D form. Actinocin(9to1) = Cc1c2oc3c(C)ccc(C(=O)[*:1])c3nc-2c(C(=O)[*:2])c(N)c1=O; NMeV = CN[C@H](C(=O)O)C(C)C; d = 2'-deoxy (DNA); Sar = CNCC(=O)O; r = 2'-OH (RNA)", "data": [{"molecule": "Cc1c2oc3c(C)ccc(C(=O)N[C@@H]4C(=O)N[C@H](C(C)C)C(=O)N5CCC[C@H]5C(=O)N(C)CC(=O)N(C)[C@@H](C(C)C)C(=O)O[C@@H]4C)c3nc-2c(C(=O)N[C@@H]2C(=O)N[C@H](C(C)C)C(=O)N3CCC[C@H]3C(=O)N(C)CC(=O)N(C)[C@@H](C(C)C)C(=O)O[C@@H]2C)c(N)c1=O", "note": "[AcD, actinomycin D] (I: T[dV]P[Sar][NMeV] / II: T[dV]P[Sar][NMeV]; ester I:1-I:C, II:1-II:C; linker I:N-II:N via Actinocin(9to1))", "values": [{"measurement": "effect of treatment alone on cellular MUC1 levels", "setting": "[1]", "result": "did not significantly affect"}]}, {"molecule": "C[C@@H]1C[C@@H]([C@H](O)CC2CC(=O)NC(=O)C2)C(=O)[C@@H](C)C1", "note": "[Chx, cycloheximide]", "values": [{"measurement": "effect of treatment alone on cellular MUC1 levels", "setting": "[1]", "result": "did not significantly affect"}]}, {"molecule": "N#CC(=C(/N)Sc1ccccc1N)/C(C#N)=C(\\N)Sc1ccccc1N", "note": "[U0126]", "values": [{"measurement": "effect on TNF-α induced MUC1 transcription", "setting": "[2]; A549 cells, pretreatment with U0126", "result": "completely blocked"}]}, {"molecule": "MUC1 siRNA: 21-bp siRNA with a sequence derived from the MUC1 gene (Dharmacon); sense SEQ ID NO: 2, antisense SEQ ID NO: 3 (sense GUUCAGUGCCCAGCUCUACTT; antisense GUAGAGCUGGGCACUGAACTT; sugars from the 5' end r19 d2, backbone not given here)", "values": [{"measurement": "effect on flagellin-induced ELAM-1 promoter activity compared with control RNA", "setting": "[3]", "result": "significantly increased"}, {"measurement": "decrease in the number of cells with surface MUC1 expression", "setting": "MUC1; 48 h, FACS", "result": 67, "unit": "%"}, {"measurement": "knockdown of total cellular MUC1 expression", "setting": "MUC1; 48 h post-nucleofection, immunoblot", "result": "approximately 95%"}, {"measurement": "greater flagellin-induced IL-8 levels compared with control RNA", "setting": "[4]", "result": 50, "unit": "%"}]}, {"molecule": "P. aeruginosa strain K (PAK) flagellin (from UniProt P21184 2-394) (ligand)", "values": [{"measurement": "IL-8 release (HEK293T cells transfected with empty vector, endogenous TLR5; 10 ng/ml flagellin for 6 h vs PBS)", "setting": "TLR5 [5]", "result": 55, "unit": "% increase"}, {"measurement": "IL-8 release (HEK293T cells transiently transfected with TLR5 expression plasmid; 10 ng/ml flagellin for 6 h vs PBS)", "setting": "TLR5 [5]", "result": 164, "unit": "% increase"}, {"measurement": "relative luciferase activity (ELAM-1 promoter-luciferase reporter, HEK293T cells, 10 ng/ml flagellin vs fliC negative control)", "setting": "TLR5 [5]", "result": 10, "unit": "fold"}]}, {"molecule": "TNF-α", "values": [{"measurement": "effect on MUC1 protein and mRNA levels", "setting": "[2]; human lung epithelial (A549) cells", "result": "increased both MUC1 protein and mRNA levels"}]}, {"molecule": "B1", "values": [{"measurement": "increase in IL-8 release compared with PBS treatment", "setting": "TLR5 [6]; HEK293T cells transfected with TLR5, 10 ng/ml flagellin 6 h", "result": 164, "unit": "%"}, {"measurement": "increase in IL-8 release compared with PBS treatment", "setting": "TLR5 [6]; HEK293T cells transfected with empty vector, 10 ng/ml flagellin 6 h", "result": 55, "unit": "%"}, {"measurement": "increase in relative luciferase activity (ELAM-1 promoter) compared with fliC negative control", "setting": "[7]", "result": "greater than 10 fold"}]}]}
